In patent publication US11001569B2, “6-membered heteroaromatic substituted cyanoindoline derivatives as NIK inhibitors” (Janssen Pharmaceutica NV, priority 2016, dated 2021):

Columns and labels:
[1] = tested on: JJN-3 (NIK translocated) multiple myeloma cells; test: Antiproliferative activity on JJN-3 multiple myeloma cells (CellTiter-Glo); type: cell-based, human; settings: Homo sapiens, JJN-3, 96 h, JJN-3 (NIK translocated) cells, 96 hr treatment, averaged values, read-out: JJN-3 Proliferation inhibition (IC50 (nM))
Method: (§1) Determination of Antiproliferative Activity on JJN-3 (NIK Translocated) and KMS12-BM (NIK WT) Multiple Myeloma Cells
(§2) All compounds tested were dissolved in DMSO and further dilutions were made in culture medium. Final DMSO concentration was 0.3% (v/v) in cell proliferation assays. Viability was assessed using CellTiter-Glo cell viability assay kit (Promega). […] Cells were routinely kept as suspension cells at 37° C. in a humidified 5% CO2 atmosphere. Cells were passaged at a seeding density of 0.2×10^6/ml twice a week. Cells were seeded in black tissue culture treated 96-well plates (Perkin Elmer). Densities used for plating ranged from 15000 (JJN3) to 20000 (KMS12BM) cells per well in a total volume of 135 μl medium. Drugs and/or solvents were added (15 μl) to a final volume of 150 μl. Following 96 hr of treatment, plates were removed from the incubator and allowed to equilibrate to room temperature for approx 10 min. 75 μl CellTiter-Glo reagent was added to each well that was then covered (Perkin Elmer Topseal) and shaken on plate shaker for 10 min. Luminescence was measured on a HTS Topcount (Perkin Elmer). […] For initial screening purposes, compounds were tested using a 9 point dilution curve (serial 1:3 dilutions). For each experiment, controls (containing no drug) and a blank incubation (containing cells read at the time of compound addition) were run in parallel. The blank value was subtracted from all control and sample values. For each sample, the mean value for cell growth (in relative light units) was expressed as a percentage of the mean value for cell growth of the control.

[2] = target: recombinant human NF-kappaB-inducing Kinase (NIK/MAP3K14) (Homo sapiens, UniProt Q99558); test: Inhibition of auto-phosphorylation of recombinant human NIK/MAP3K14 activity (AlphaScreen); type: biochemical; settings: 25 microM ATP, averaged over all measurements on all batches
Method: Pharmacological Part Biological assay A Inhibition of auto-phosphorylation of recombinant human NF-kappaB-inducing Kinase (NIK/MAP3K14) Activity (AlphaScreen®)
NIK/MAP3K14 auto-phosphorylation activity was measured using the AlphaScreen® (αscreen) format (Perkin Elmer). All compounds tested were dissolved in dimethyl sulfoxide (DMSO) and further dilutions were made in assay buffer. Final DMSO concentration was 1% (v/v) in assays. Assay buffer was 50 mM Tris pH 7.5 containing 1 mM EGTA (ethylene glycol tetraacetic acid), 1 mM DTT (dithiothreitol), 0.1 mM Na3VO4, 5 mM MgCl2, 0.01% Tween® 20. Assays were carried out in 384 well Alphaplates (Perkin Elmer). […] Incubations were initiated by addition of GST-tagged NIK/MAP3K14 enzyme, carried out for 1 h at 25° C. and terminated by addition of stop buffer containing anti-phospho-IKK Ser176/180 antibody. Protein A Acceptor and Glutathione-Donor beads were added before reading using an EnVision® Multilabel Plate Reader (Perkin Elmer). Signal obtained in the wells containing blank samples was subtracted from all other wells and IC50's were determined by fitting a sigmoidal curve to % inhibition of control versus Log10 compound concentration.

[3] = tested on: KMS12-BM (NIK WT) multiple myeloma cells; test: Antiproliferative activity on KMS12-BM multiple myeloma cells (CellTiter-Glo); type: cell-based, human; settings: Homo sapiens, KMS-12-BM, 96 h, 96 hr treatment, averaged values, read-out: KMS-12 Proliferation inhibition (IC50 (nM))
Method: as §1, §2

recombinant human NF-kappaB-inducing Kinase (NIK/MAP3K14), sequence (Q99558 whole entry): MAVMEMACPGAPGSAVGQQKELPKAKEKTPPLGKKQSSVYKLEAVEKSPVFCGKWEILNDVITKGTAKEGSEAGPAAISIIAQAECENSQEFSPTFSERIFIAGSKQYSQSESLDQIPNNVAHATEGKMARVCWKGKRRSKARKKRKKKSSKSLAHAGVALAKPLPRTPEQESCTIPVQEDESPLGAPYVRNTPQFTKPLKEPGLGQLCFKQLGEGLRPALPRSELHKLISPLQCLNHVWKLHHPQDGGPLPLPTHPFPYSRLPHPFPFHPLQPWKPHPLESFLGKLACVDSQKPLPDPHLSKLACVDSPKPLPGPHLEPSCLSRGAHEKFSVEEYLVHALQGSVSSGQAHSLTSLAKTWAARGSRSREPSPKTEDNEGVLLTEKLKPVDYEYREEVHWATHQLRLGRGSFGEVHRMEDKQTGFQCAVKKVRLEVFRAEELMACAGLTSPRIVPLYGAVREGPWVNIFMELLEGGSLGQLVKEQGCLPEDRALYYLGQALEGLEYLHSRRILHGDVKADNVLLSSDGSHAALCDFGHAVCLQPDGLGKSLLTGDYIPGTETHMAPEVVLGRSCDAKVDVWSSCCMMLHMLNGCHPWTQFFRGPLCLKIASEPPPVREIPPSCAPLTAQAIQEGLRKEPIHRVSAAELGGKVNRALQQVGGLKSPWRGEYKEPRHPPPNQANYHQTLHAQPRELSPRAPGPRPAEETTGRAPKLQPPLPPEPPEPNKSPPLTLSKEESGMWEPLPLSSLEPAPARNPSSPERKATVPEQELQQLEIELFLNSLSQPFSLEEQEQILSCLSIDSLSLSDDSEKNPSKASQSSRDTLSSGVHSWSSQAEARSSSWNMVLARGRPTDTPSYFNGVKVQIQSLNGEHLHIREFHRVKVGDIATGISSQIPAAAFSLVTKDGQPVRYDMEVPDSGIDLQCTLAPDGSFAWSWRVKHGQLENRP

Compound	melting point	IC50 [1]	IC50 [2]	IC50 [3]
CC1(CO)CNc2c(C#N)cc(-c3ccnc(Nc4cc(Cl)cnc4Cl)n3)cc21 (stereo not shown) [Compound 5]	261 °C	170 nM	~8.51 nM	> 10000 nM
COC[C@@]1(C)CNc2c(C#N)cc(-c3ccnc(Nc4cc(Cl)cnc4C)n3)cc21 [Compound 122]	182 °C	478 nM	9.5 nM	4790 nM
COc1cccnc1Nc1nccc(-c2cc(C#N)c3c(c2)[C@@](C)(CO)CN3)n1 [Compound 24]	145 °C	6920 nM	123 nM	> 10000 nM
C[C@]1(CO)CNc2c(C#N)cc(-c3ccnc(Nc4cccnc4OC[C@@H]4CCCO4)n3)cc21 [Compound 42]	154 °C	347 nM	6.2 nM	> 10000 nM
COCCCn1cccc(Nc2nccc(-c3cc(C#N)c4c(c3)[C@@](C)(CO)CN4)n2)c1=O [Compound 10i]	192 °C	339 nM	3 nM	4790 nM
CCOC(=O)c1ccc(Nc2nccc(-c3cc(C#N)c4c(c3)C(C)(CO)CN4)n2)cn1 (stereo not shown) [Compound 9]	238 °C	219 nM	5.3 nM	427 nM
COc1ncccc1Nc1nccc(-c2cc(C#N)c3c(c2)C(C)(COCCN2CCOCC2)CN3)n1 (stereo not shown) [Compound 117]	108 °C	> 10000 nM	45.7 nM	> 10000 nM
CC1(CO)CNc2c(C#N)cc(-c3nc(Nc4cccnc4OC4CCOCC4)ncc3F)cc21 (stereo not shown) [Compound 107]	226 °C	309 nM	4.8 nM	562 nM
C[C@]1(CO)CNc2c(C#N)cc(-c3ccnc(Nc4cccn(CC(O)CO)c4=O)n3)cc21 (stereo partly shown) [Compound 31i]	> 250 °C	~5010 nM	3.3 nM	> 10000 nM
COc1ncccc1Nc1nccc(-c2cc(C#N)c3c(c2)C(C)(CN2CCNCC2)CN3)n1 (stereo not shown) [Compound 111]	220 °C	669 nM	14.8 nM	3160 nM
CC(C)OCCOc1ncccc1Nc1nccc(-c2cc(C#N)c3c(c2)[C@@](C)(CO)CN3)n1 [Compound 19]	154 °C	912 nM	14.5 nM	> 10000 nM
COc1nc(C2CCOCC2)ccc1Nc1nccc(-c2cc(C#N)c3c(c2)[C@@](C)(CO)CN3)n1 [Compound 44]	217 °C	81 nM	9.3 nM	> 10000 nM
Cn1cc(Cl)cc(Nc2nccc(-c3cc(C#N)c4c(c3)C(C)(CO)CN4)n2)c1=O (stereo not shown) [Compound 15i]	295 °C	~427 nM	3.6 nM	> 10000 nM
COc1ncc(Cl)cc1Nc1nccc(-c2cc(C#N)c3c(c2)C(C)(CO)CN3)n1 (stereo not shown) [Compound 3]	254 °C	81 nM	8.3 nM	> 10000 nM
CC1(CO)CNc2c(C#N)cc(-c3ccnc(Nc4cncnc4)n3)cc21 (stereo not shown) [Compound 128]	307 °C	209 nM	6.3 nM	~195 nM
[2H]C([2H])([2H])Oc1ncccc1Nc1nccc(-c2cc(C#N)c3c(c2)C(C)(CO)CN3)n1 (stereo not shown) [Compound 17]	248 °C	288 nM	2.5 nM	> 10000 nM
CNCC1(C)CNc2c(C#N)cc(-c3ccnc(Nc4cccnc4OC)n3)cc21 (stereo not shown) [Compound 108]	173 °C	2140 nM	25.1 nM	~3980 nM
C[C@]1(CO)CNc2c(C#N)cc(-c3ccnc(Nc4cccnc4O[C@@H]4CCCOC4)n3)cc21 [Compound 27]	149 °C	1510 nM	3.6 nM	7410 nM
COc1ncc(Cl)cc1Nc1nccc(-c2cc(C#N)c3c(c2)C(C)(COCCNC2CC2)CN3)n1 (stereo not shown) [Compound 119]	106 °C	1290 nM	129 nM	2000 nM
